In article PMC4273293 (2014):

Experiments:
[1] = test system: 22AG (DNA, G4) AGGGTTAGGGTTAGGGTTAGGG; assay: fluorimetric titration; settings: K+ 95 mM; 20 °C; DNA concentration in oligonucleotide
[2] = test system: Fa2T (DNA, G4) ACAGGGGTGTGGGGACAGGGGTGTGGGG; assay: FRET melting; settings: K+ 10 mM, Li+ 90 mM, Na+ 10 mM; cacodylate buffer, pH 7.2; DNA 0.2 µM; ligand–DNA ratio 5.0
[3] = test system: ILPR-DNA a2 (DNA, G4) ACAGGGGTGTGGGGACAGGGGTGTGGGG; assay: fluorimetric titration; settings: K+ 95 mM, potassium phosphate buffer, pH 7.0, 20 °C, DNA concentration in nucleotide bases, per base
[4] = test system: 22AG (DNA, G4) AGGGTTAGGGTTAGGGTTAGGG; assay: CD spectroscopy (induced CD)

| Kb^22AG [1] [M⁻¹] | ΔTm [2] [°C] | Kb^a2 ([3]; site 1 of 2) [M⁻¹] | Kb^a2 [3] [M⁻¹] | binding [4] | SMILES |
| --- | --- | --- | --- | --- | --- |
| 390000 | 3.4 ± 0.5 | 1.7e+07 |  |  | CN1C(=CC=C(C=CC2=[N+](C)c3ccccc3C2(C)C)C=CC2=[N+](C)c3ccccc3C2(C)C)C=Cc2ccccc21 |
| 900000 | 3.7 ± 0.5 | 5.5e+06 |  |  | CN1C(=CC=C(C=Cc2ccc3ccccc3[n+]2C)C=Cc2ccc3ccccc3[n+]2C)C(C)(C)c2ccccc21 |
| 200000 | 14.5 ± 0.5 |  | 2.7e+06 |  | CN1C(=CC=C(C=Cc2ccc3ccccc3[n+]2C)C=Cc2ccc3ccccc3[n+]2C)C=Cc2ccccc21 |
|  | 4.9 ± 0.5 |  | 1.2e+06 |  | CN1C(=CC=C(C=Cc2sc3ccccc3[n+]2C)C=Cc2sc3ccccc3[n+]2C)Sc2ccccc21 |
|  | 1.8 ± 0.5 |  | 300000 | yes | CN1C(=Cc2cc[n+](C)c3ccccc23)Sc2ccccc21 |
| 200000 | 3.5 ± 0.5 |  | 200000 |  | CN1C=CC(=CC=C(C=Cc2cc[n+](C)c3ccccc23)C=Cc2cc[n+](C)c3ccccc23)c2ccccc21 |
|  | 3.1 ± 0.5 |  | 2.5e+06 |  | COc1cc2cc3c4cc(OC)c(OC)cc4cc[n+]3c(C)c2cc1OC |
|  | 14.9 ± 0.5 |  | 2.4e+06 |  | C[n+]1cc(NC(=O)c2cccc(C(=O)Nc3cc4ccccc4[n+](C)c3)n2)cc2ccccc21 |
|  | 6.3 ± 0.5 |  | 2.2e+06 |  | C[n+]1ccc(-c2c3nc(c(-c4cc[n+](C)cc4)c4ccc([nH]4)c(-c4cc[n+](C)cc4)c4nc(c(-c5cc[n+](C)cc5)c5ccc2[nH]5)C=C4)C=C3)cc1 |
|  | 5.8 ± 0.5 |  | 3.5e+06 |  | c1cc[n+]2cc3c(cc2c1)c1cc2cccc[n+]2cc1c1c2c[n+]4ccccc4cc2c2cc4cccc[n+]4cc2c31 |
